pIC50, pKd: −log10 of the molar value.

This passage reports IC50 and Kd results from patent US20230348424A1, “HETEROCYCLIC COMPOUNDS AND METHODS OF USE” (Schrödinger, Inc., priority 2022, published 2023).

Assay [1] has as its target SOS1:KRAS (G12C) interaction (Homo sapiens (Human), UniProt Q07889). Description: SOS1 KRas(G12C) FRET Assay. The format is binding. The note with it: 0.5 nM His10-SOS1 (res. 564-1049), 2.5 nM GST-KRAS G12C (res. 1-169), 2 hrs at RT. An outline of the steps: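 GST-KRAS G12C (res. 1-169) at 2.5 nM and His10-SOS1 (res. 564-1049) at 0.5 nM, final, in PBS with 0.1% BSA, 5 mM MgCl2, 100 mM KF, 5 mM DTT and 0.5% DMSO. After 2 h at RT, FRET read at 665/615 nm and normalized to DMSO and no-SOS1 controls. IC50 by non-linear regression.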

In assay [2] the target is human SOS1 (Homo sapiens (Human), UniProt Q07889). Description: Surface Plasmon Resonance (SPR) SOS1 Binding Assay. The note with it: biotinylated SOS1 (res. 564-1049), Biacore 8K, 25° C., kinetic or steady state fit, 1:1 binding; read-out: hSOS1 KD. In outline: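 Biotinylated Avi-tagged human SOS1 (res. 564-1049) captured on streptavidin chip (~3,000 RU); compounds injected 60 s, dissociation 600 s, at 25° C in Tris pH 8.0 buffer with 5% DMSO. Reference- and blank-subtracted; KD from kinetic or steady-state 1:1 binding fit.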
human SOS1, sequence (Q07889 564-1049): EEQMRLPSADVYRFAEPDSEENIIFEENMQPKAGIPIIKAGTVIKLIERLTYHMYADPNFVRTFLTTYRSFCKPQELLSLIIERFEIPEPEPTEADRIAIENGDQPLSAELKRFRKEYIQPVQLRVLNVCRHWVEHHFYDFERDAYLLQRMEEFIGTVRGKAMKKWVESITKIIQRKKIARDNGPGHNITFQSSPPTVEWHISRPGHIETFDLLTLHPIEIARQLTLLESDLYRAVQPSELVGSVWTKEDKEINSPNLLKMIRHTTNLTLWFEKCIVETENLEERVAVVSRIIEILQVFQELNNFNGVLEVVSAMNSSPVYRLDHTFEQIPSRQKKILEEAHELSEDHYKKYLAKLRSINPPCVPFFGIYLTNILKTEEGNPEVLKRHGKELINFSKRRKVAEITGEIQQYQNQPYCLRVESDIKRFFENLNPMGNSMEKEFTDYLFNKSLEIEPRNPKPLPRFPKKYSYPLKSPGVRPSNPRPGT
For orientation: Surface plasmon resonance follows binding to a sensor surface in real time, without labels.

SOS1:KRAS (G12C) interaction, sequence (Q07889 564-1049, stated change not applied): as the sequence (Q07889 564-1049) above

Broadly, the pIC50 is the negative decadic logarithm of the IC50, by convention in mol/L. For orientation: pKd means the Kd on a negative log10 scale, so that one unit is a factor of ten. Regarding `C[C@@H](NC(=O)c1cn(C2(C(F)F)CC2)c(=O)cc1NC1CCN(C)CC1)c1cccc(C(F)F)c1F` [Example 49, (R)-N-(1-(3-(difluoromethyl)-2-fluorophenyl)ethyl)-1-(1-(difluoromethyl)cyclopropyl)-4-((1-methylpiperidin-4-yl)amino)-6-oxo-1,6-dihydropyridine-3-carboxamide], the negative logarithm of the IC50 (pIC50) in assay [1] was 7.87. Besides, the pKd in assay [2] was 8.52.

In turn, `Cc1c([C@@H](C)NC(=O)c2cn(C3(C(F)F)CC3)c(=O)cc2NC2CCN(C)CC2)cccc1C(F)(F)F` [Example 50, (R)-1-(1-(difluoromethyl)cyclopropyl)-N-(1-(2-methyl-3-(trifluoromethyl)phenyl)ethyl)-4-((1-methylpiperidin-4-yl)amino)-6-oxo-1,6-dihydropyridine-3-carboxamide] showed a negative logarithm of the IC50 (pIC50) in assay [1] of 7.69. For the same molecule, in assay [2], the pKd was 8.10.

`C[C@@H](NC(=O)c1cn(C2(C(F)F)CC2)c(=O)cc1NC1CCN(C)CC1)c1cccc(C(C)(F)F)c1F` [Example 51, (R)-N-(1-(3-(1,1-difluoroethyl)-2-fluorophenyl)ethyl)-1-(1-(difluoromethyl)cyclopropyl)-4-((1-methylpiperidin-4-yl)amino)-6-oxo-1,6-dihydropyridine-3-carboxamide] gave a pIC50 in assay [1] of 7.73. Also, the pKd in assay [2] was 8.10.

`C[C@@H](NC(=O)c1cn(C2(C(F)F)CC2)c(=O)cc1NC1CCN(C)CC1)c1cccc(C(F)(F)F)c1F` [Example 52, (R)-1-(1-(difluoromethyl)cyclopropyl)-N-(1-(2-fluoro-3-(trifluoromethyl)phenyl)ethyl)-4-((1-methylpiperidin-4-yl)amino)-6-oxo-1,6-dihydropyridine-3-carboxamide] had a pIC50 in assay [1] of 7.87. Moreover, the pKd in assay [2] was 8.22.

Take `C[C@@H](NC(=O)c1cn(C2(C(F)F)CC2)c(=O)cc1NCCN(C)C)c1cccc(C(F)F)c1F` [Example 61, (R)-N-(1-(3-(difluoromethyl)-2-fluorophenyl)ethyl)-1-(1-(difluoromethyl)cyclopropyl)-4-((2-(dimethylamino)ethyl)amino)-6-oxo-1,6-dihydropyridine-3-carboxamide]: the pIC50 in assay [1] is 7.19. Moreover, the pKd in assay [2] was 7.47.

`C[C@@H](NC(=O)c1cn([C@@H]2CCOC[C@H]2F)c(=O)cc1NC1CCN(C)CC1)c1cccc(C(F)F)c1F` [Example 79, N-((R)-1-(3-(difluoromethyl)-2-fluorophenyl)ethyl)-1-((3S,4R)-3-fluorotetrahydro-2H-pyran-4-yl)-4-((1-methylpiperidin-4-yl)amino)-6-oxo-1,6-dihydropyridine-3-carboxamide] had a negative logarithm of the IC50 (pIC50) in assay [1] of 8.43. Also, in assay [2], the negative-log Kd (pKd) was 8.70.

In the case of `C[C@@H](NC(=O)c1cn([C@H]2CCOC[C@@H]2F)c(=O)cc1NC1CCN(C)CC1)c1cccc(C(F)F)c1F` [Example 80, N-((R)-1-(3-(difluoromethyl)-2-fluorophenyl)ethyl)-1-((3R,4S)-3-fluorotetrahydro-2H-pyran-4-yl)-4-((1-methylpiperidin-4-yl)amino)-6-oxo-1,6-dihydropyridine-3-carboxamide], in assay [1], the pIC50 is 7.78. In assay [2], the pKd is 8.10.

For the molecule `C[C@@H](NC(=O)c1cn(C2(C(F)F)CC2)c(=O)cc1NCCN1CCOCC1)c1cccc(C(F)F)c1F` [Example 81, (R)-N-(1-(3-(difluoromethyl)-2-fluorophenyl)ethyl)-1-(1-(difluoromethyl)cyclopropyl)-4-((2-morpholinoethyl)amino)-6-oxo-1,6-dihydropyridine-3-carboxamide], in assay [1], the pIC50 is 6.76. Moreover, in assay [2], the pKd is 7.02.

`C[C@@H](NC(=O)c1cn(C2(C(F)F)CC2)c(=O)cc1NC1CCN(CCF)CC1)c1cccc(C(F)F)c1F` [Example 82, (R)-N-(1-(3-(difluoromethyl)-2-fluorophenyl)ethyl)-1-(1-(difluoromethyl)cyclopropyl)-4-((1-(2-fluoroethyl)piperidin-4-yl)amino)-6-oxo-1,6-dihydropyridine-3-carboxamide]: the negative-log IC50 (pIC50) in assay [1] is 7.58. For the same molecule, the negative-log Kd (pKd) in assay [2] is 7.77.

As to `C[C@@H](NC(=O)c1cn(C2(C(F)F)CC2)c(=O)cc1N[C@H]1CN2CCC1CC2)c1cccc(C(F)F)c1F` [Example 83, N-((R)-1-(3-(difluoromethyl)-2-fluorophenyl)ethyl)-1-(1-(difluoromethyl)cyclopropyl)-6-oxo-4-(((R)-quinuclidin-3-yl)amino)-1,6-dihydropyridine-3-carboxamide], in assay [1], the negative logarithm of the IC50 (pIC50) is 7.59. For the same molecule, the pKd in assay [2] was 7.70.

`C[C@@H](NC(=O)c1cn(C2(C(F)F)CC2)c(=O)cc1N[C@@H]1CN2CCC1CC2)c1cccc(C(F)F)c1F` [Example 84, N-((R)-1-(3-(difluoromethyl)-2-fluorophenyl)ethyl)-1-(1-(difluoromethyl)cyclopropyl)-6-oxo-4-(((S)-quinuclidin-3-yl)amino)-1,6-dihydropyridine-3-carboxamide] had a pIC50 in assay [1] of 7.99. Further, the negative logarithm of the Kd (pKd) in assay [2] was 8.05.

With `C[C@@H](NC(=O)c1cn(C2(C(F)F)CC2)c(=O)cc1NC[C@@H]1CC2CCN1CC2)c1cccc(C(F)F)c1F` [Example 85, N-((R)-1-(3-(difluoromethyl)-2-fluorophenyl)ethyl)-1-(1-(difluoromethyl)cyclopropyl)-6-oxo-4-((((S)-quinuclidin-2-yl)methyl)amino)-1,6-dihydropyridine-3-carboxamide], the pIC50 in assay [1] is 7.58. The negative-log Kd (pKd) in assay [2] is 7.92.

In assay [1], `C[C@@H](NC(=O)c1cn(C2(C(F)F)CC2)c(=O)cc1NC[C@H]1CC2CCN1CC2)c1cccc(C(F)F)c1F` [Example 86, N-((R)-1-(3-(difluoromethyl)-2-fluorophenyl)ethyl)-1-(1-(difluoromethyl)cyclopropyl)-6-oxo-4-((((R)-quinuclidin-2-yl)methyl)amino)-1,6-dihydropyridine-3-carboxamide] had a pIC50 of 7.14. Moreover, the negative-log Kd (pKd) in assay [2] is 7.54.

Turning to `C[C@H](Nc1cc(=O)n(C2(C(F)F)CC2)cc1C(=O)N[C@H](C)c1cccc(C(F)F)c1F)c1cncn1C` [Example 87, N-((R)-1-(3-(difluoromethyl)-2-fluorophenyl)ethyl)-1-(1-(difluoromethyl)cyclopropyl)-4-(((S)-1-(1-methyl-1H-imidazol-5-yl)ethyl)amino)-6-oxo-1,6-dihydropyridine-3-carboxamide], the pIC50 in assay [1] was 7.21. Further, the pKd in assay [2] is 7.08.

With `C[C@@H](NC(=O)c1cn(C2(C(F)F)CC2)c(=O)cc1N[C@H](C)c1cncn1C)c1cccc(C(F)F)c1F` [Example 88, N-((R)-1-(3-(difluoromethyl)-2-fluorophenyl)ethyl)-1(1-(difluoromethyl)cyclopropyl)-4(((R)-1-(1-methyl-1H-imidazol-5-yl)ethyl)amino)-6-oxo-1,6-dihydropyridine-3-carboxamide], the negative-log IC50 (pIC50) in assay [1] was 7.06. Further, the negative logarithm of the Kd (pKd) in assay [2] was 7.02.

For `C[C@@H](NC(=O)c1cn(C23CC(C2)C3)c(=O)cc1N[C@H]1[C@@H]2CN(C)C[C@@H]21)c1cccc(C(F)F)c1F` [Example 90, 1-(bicyclo[1.1.1]pentan-1-yl)-N-((R)-1-(3-(difluoromethyl)-2-fluorophenyl)ethyl)-4-(((1R,5S,6s)-3-methyl-3-azabicyclo[3.1.0]hexan-6-yl)amino)-6-oxo-1,6-dihydropyridine-3-carboxamide], the pIC50 in assay [1] was 7.87. In addition, the negative logarithm of the Kd (pKd) in assay [2] was 8.05.

`[2H]C([2H])([2H])N1C[C@@H]2[C@H](C1)[C@H]2Nc1cc(=O)n(C23CC(C2)C3)cc1C(=O)N[C@H](C)c1cccc(C(F)F)c1F` [Example 91, 1-(bicyclo[1.1.1]pentan-1-yl)-N-((R)-1-(3-(difluoromethyl)-2-fluorophenyl)ethyl)-4-(((1R,5S,6s)-3-(methyl-d3)-3-azabicyclo[3.1.0]hexan-6-yl)amino)-6-oxo-1,6-dihydropyridine-3-carboxamide] gave a pIC50 in assay [1] of 7.86. In assay [2], the pKd is 7.92.

Molecule `C[C@@H](NC(=O)c1cn([C@H]2CC2(F)F)c(=O)cc1N[C@H]1[C@@H]2CN(C)C[C@@H]21)c1cccc(C(F)F)c1F` [Example 93, 1-((S)-2,2-difluorocyclopropyl)-N-((R)-1-(3-(difluoromethyl)-2-fluorophenyl)ethyl)-4-(((lR,5S,6s)-3-methyl-3-azabicyclo[3.1.0]hexan-6-yl)amino)-6-oxo-1,6-dihydropyridine-3-carboxamide] showed a pIC50 in assay [1] of 7.63. In assay [2], the negative logarithm of the Kd (pKd) was 7.89.

For the molecule `C[C@@H](NC(=O)c1cn([C@H]2CC2(C)C)c(=O)cc1N[C@H]1[C@@H]2CN(C)C[C@@H]21)c1cccc(C(F)F)c1F` [Example 95, N-((R)-1-(3-(difluoromethyl)-2-fluorophenyl)ethyl)-1-((S)-2,2-dimethylcyclopropyl)-4-(((lR,5S,6s)-3-methyl-3-azabicyclo[3.1.0]hexan-6-yl)amino)-6-oxo-1,6-dihydropyridine-3-carboxamide], the negative-log IC50 (pIC50) in assay [1] is 7.67. The pKd in assay [2] is 7.92.

On to `C[C@@H](NC(=O)c1cn([C@H]2C[C@@H](F)C2)c(=O)cc1N[C@H]1[C@@H]2CN(C)C[C@@H]21)c1cccc(C(F)F)c1F` [Example 96, N-((R)-1-(3-(difluoromethyl)-2-fluorophenyl)ethyl)-1-((1s,3S)-3-fluorocyclobutyl)-4-(((1R,5S,6s)-3-methyl-3-azabicyclo[3.1.0]hexan-6-yl)amino)-6-oxo-1,6-dihydropyridine-3-carboxamide], for which the negative logarithm of the IC50 (pIC50) in assay [1] is 7.80. In assay [2], the negative-log Kd (pKd) is 8.05.
